The text below walks through data of publication PMC6017358 (Molecules : A Journal of Synthetic Chemistry and Natural …, 2018).

≈ marks a conversion by molar mass, not a printed value. Where “and” joins values, the source holds several entries; their conditions need not be identical. Equal values may be shown once. Where a name gives a salt, the structure may show the parent alone. Read-outs that look alike come from different tables or passages of the source.

The test system of series [1] is breast cancer cell line MCF-7. In words: In vitro cytotoxicity viability assay (crystal violet). In kind it is cell-based. Conditions: Homo sapiens, MCF7. On the procedure: (§1) The cells were seeded in 96-well plates at a cell concentration of 1 × 10^4 cells per well in 100 µL of growth medium. Fresh medium containing different concentrations of the test sample was added 24 h after seeding. Serial two-fold dilutions of the tested chemical compound were added to confluent cell monolayers dispensed into 96-well, flat-bottomed microliter plates (Falcon, NJ, USA) using a multichannel pipette. The microliter plates were incubated at 37 °C in a humidified incubator with 5% CO2 for a period of 48 h. Three wells were used for each concentration of the test sample. Control cells were incubated without test sample and with or without DMSO. The little percentage of DMSO present in the wells (maximal 0.1%) was found not to affect the experiment. After incubation of the cells at 37 °C, various concentrations of sample were added, and the incubation was continued for 24 h and viable cells yield was determined by a colorimetric method. In brief, after the end of the incubation period, media were aspirated and the crystal violet solution (1%) was added to each well for at least 30 min. The stain was removed and the plates were rinsed using tap water until all excess stain is removed. Glacial acetic acid (30%) was then added to all wells and mixed thoroughly, and then the absorbance of the plates were measured after gently shaken on microplate reader (TECAN, Inc., Morrisville, NC, USA), using a wavelength of 490 nm. All results were corrected for background absorbance detected in wells without added stain. Treated samples were compared with the cell control in the absence of the tested compounds. All experiments were carried out in triplicate. The cell cytotoxic effect of each tested concentration was calculated. The optical density was measured with the microplate reader (SunRise, TECAN, Inc., Morrisville, NC, USA) to determine the number of viable cells and the percentage of viability was calculated as [1 − (ODt/ODc)] × 100% where ODt is the mean optical density of wells treated with the tested sample and ODc is the mean optical density of untreated cells. The relation between surviving cells and drug concentration is plotted to get the survival curve of each tumor cell line after treatment. […] The biological evaluation was done at the Regional Center for Mycology & Biotechnology, Al-Azhar University.

For series [2], the system named is lung cancer cell line A-549. The series is described as above. It is filed as cell-based. Conditions: Homo sapiens, A549. As to the method:
as §1

The next series concerns rats. Conditions: oral administration in rats; cited from earlier work.

Take `NCCCC(O)(P(=O)(O)O)P(=O)(O)O` [Alendronate, reference compound]: the IC50 in series [1] (MCF-7, read-out: IC50) is 89.4 µg/mL (≈ 359 µM); in series [2] (read-out: IC50), 19 µg/mL (≈ 76.3 µM).

Turning to `CP(=O)(O)CCC(N)C(=O)O` (centres unmarked) [Phosphinothricin, 2-amino-4-(hydroxymethyl-phosphinylbutyric acid ammonium salt], the concentration for half-maximal inhibition (IC50) is 32.6 µg/mL and 180 µM in series [1]; 45.8 µg/mL and 253 µM in series [2]. Moreover, in the series on rats, the LD50 is 2170 mg/kg.
